# Source: paper PMC10847306, “The antibacterial activity and mechanism of a novel peptide MR-22 against multidrug-resistant Escherichia coli” (Frontiers in Cellular and Infection Microbiology, 2024)
# Key:
# [1] = tested on: E. coli E19; test: Membrane permeability assay (PI, flow cytometry); type: cell-based, Escherichia coli; conditions: 1 h, untreated 2.13%
# Experimental: (§1) According to the previously described method ([Fadhel Abbas Albaayit et al., 2022]), bacterial suspensions were diluted with PBS to concentration of 1.0×10^6 CFU/mL. […] 10 μM of propidium iodide (PI; Sigma, US) was added to each group and incubated at 37°C for 15 min in the dark. The samples were analyzed using a CytoFLEX flow cytometry (Beckman Coulter, USA), and the positive rate of PI was utilized as an indicator of bacterial membrane permeability.
# [2] = tested on: E. coli ATCC 25922; test: Membrane permeability assay (PI, flow cytometry); type: cell-based, Escherichia coli; conditions: 1 h, untreated 0.79%
# Experimental: as §1
# [3] = tested on: E. coli clinical strain E09; test: microbe, parasite or virus in culture; conditions: clinical strain E09, 18 h
# Experimental: (§2) The clinical strains used in this study were obtained from a tertiary healthcare facility located in Guiyang, a city situated within the Guizhou Province of China. The E. coli ATCC 25922 was obtained from the Key and Characteristic Laboratory of Modern Pathogen Biology at Guizhou Medical University in Guiyang, China. All strains were stored at –80°C in LB medium and routinely cultured at LB medium at 37°C.
# (§3) The MIC were determined by a micro dilution method in Mueller-Hinton broth (MHB) ([Cuenca-Estrella et al., 2010]). The final concentration of bacterial suspension in MHB were 1.0×10^6 CFU/mL. The final concentration of MR-22 ranged 1 ~ 256 μg/mL in 96 wells plate broth at 37°C for 16~18 h. Imipenem was employed as positive control, bacterial grown without treatment as negative control and MHB as blank control. MIC determination was performed by reading the OD600 nm. Take 100 μL samples in holes that have never seen bacterial growth and place them on the LB agar board. The concentration of MR-22 with no bacterial growth was defined as the MBC.
# [4] = tested on: E. coli clinical strain E12; test: microbe, parasite or virus in culture; conditions: clinical strain E12, 18 h
# Experimental: as §2, §3
# [5] = tested on: E. coli clinical strain E18; test: microbe, parasite or virus in culture; conditions: clinical strain E18, 18 h
# Experimental: as §2, §3
# [6] = tested on: E. coli clinical strain E15; test: microbe, parasite or virus in culture; conditions: clinical strain E15, 18 h
# Experimental: as §2, §3
# [7] = tested on: E. coli clinical strain E03; test: microbe, parasite or virus in culture; conditions: clinical strain E03, 18 h
# Experimental: as §2, §3
# [8] = tested on: E. coli clinical strain E01; test: microbe, parasite or virus in culture; conditions: clinical strain E01, 18 h
# Experimental: as §2, §3
# [9] = tested on: E. coli clinical strain E05; test: microbe, parasite or virus in culture; conditions: clinical strain E05, 18 h
# Experimental: as §2, §3
# [10] = tested on: E. coli clinical strain E14; test: microbe, parasite or virus in culture; conditions: clinical strain E14, 18 h
# Experimental: as §2, §3
# [11] = tested on: E. coli clinical strain E21; test: microbe, parasite or virus in culture; conditions: clinical strain E21, 18 h
# Experimental: as §2, §3
# [12] = tested on: E. coli clinical strain E20; test: microbe, parasite or virus in culture; conditions: clinical strain E20, 18 h
# Experimental: as §2, §3
# [13] = tested on: E. coli clinical strain E17; test: microbe, parasite or virus in culture; conditions: clinical strain E17, 18 h
# Experimental: as §2, §3
# [14] = tested on: E. coli clinical strain E02; test: microbe, parasite or virus in culture; conditions: clinical strain E02, 18 h
# Experimental: as §2, §3
# [15] = tested on: E. coli clinical strain E08; test: microbe, parasite or virus in culture; conditions: clinical strain E08, 18 h
# Experimental: as §2, §3
# [16] = tested on: E. coli clinical strain E06; test: microbe, parasite or virus in culture; conditions: clinical strain E06, 18 h
# Experimental: as §2, §3
# [17] = tested on: E. coli clinical strain E19; test: microbe, parasite or virus in culture; conditions: clinical strain E19, 18 h
# Experimental: as §2, §3
# [18] = tested on: E. coli clinical strain E07; test: microbe, parasite or virus in culture; conditions: clinical strain E07, 18 h
# Experimental: as §2, §3
# [19] = tested on: E. coli clinical strain E22; test: microbe, parasite or virus in culture; conditions: clinical strain E22, 18 h
# Experimental: as §2, §3
# [20] = tested on: E. coli clinical strain E16; test: microbe, parasite or virus in culture; conditions: clinical strain E16, 18 h
# Experimental: as §2, §3
# [21] = tested on: E. coli clinical strain E10; test: microbe, parasite or virus in culture; conditions: clinical strain E10, 18 h
# Experimental: as §2, §3
# [22] = tested on: E. coli clinical strain E11; test: microbe, parasite or virus in culture; conditions: clinical strain E11, 18 h
# Experimental: as §2, §3
# [23] = tested on: E. coli clinical strain E04; test: microbe, parasite or virus in culture; conditions: clinical strain E04, 18 h
# Experimental: as §2, §3
# [24] = tested on: E. coli clinical strain E13; test: microbe, parasite or virus in culture; conditions: clinical strain E13, 18 h
# Experimental: as §2, §3
# [25] = tested on: E. coli ATCC 25922 and clinically drug resistant isolated strains; test: microbe, parasite or virus in culture; type: cell-based, Escherichia coli; conditions: 18 h
# Experimental: as §3
# [26] = tested on: E. coli ATCC 25922 and E19; test: Intracellular ATP determination; type: cell-based, Escherichia coli; conditions: MR-22 1, 2, 4 × MIC, 1 h, 37°C; compared to the control group; dose-dependent
# Experimental: The MR-22 solution was added to bacterial suspensions (1.0 × 10^6 CFU/mL) at different final concentrations (1, 2, 4 × MIC) incubated at 37°C for 1 h. The mixture was subsequently centrifuged and the resulting supernatants were collected. Finally, the intracellular ATP concentration was determined using an ATP Assay Kit (Beyotime, China) according to the manufacturer’s instruction.
substance,measurement,setting,value
H-MAKRRKKAKKKAKKAKKRRRRR-NH2 [MR-22],percentage of PI-positive cells,[1]; 1 × MIC,7.83%
same,percentage of PI-positive cells,[1]; 2 × MIC,14.35%
same,percentage of PI-positive cells,[1]; 4 × MIC,25.14%
same,PI fluorescence signals (PI-positive cells),[2]; 1 × MIC,9.19%
same,PI fluorescence signals (PI-positive cells),[2]; 2 × MIC,39.10%
same,PI fluorescence signals (PI-positive cells),[2]; 4 × MIC,53.20%
same,MBC,[3],16 µg/mL
same,MIC,[3],16 µg/mL
same,MBC,[4],16 µg/mL
same,MIC,[4],16 µg/mL
same,MBC,[5],8 µg/mL
same,MIC,[5],8 µg/mL
same,MBC,[6],4 µg/mL
same,MIC,[6],4 µg/mL
same,MBC,[7],16 µg/mL
same,MIC,[7],16 µg/mL
same,MBC,[8],16 µg/mL
same,MIC,[8],16 µg/mL
same,MBC,[9],16 µg/mL
same,MIC,[9],16 µg/mL
same,MBC,[10],16 µg/mL
same,MIC,[10],16 µg/mL
same,MBC,[11],8 µg/mL
same,MIC,[11],8 µg/mL
same,MBC,[12],8 µg/mL
same,MIC,[12],8 µg/mL
same,MBC,[13],32 µg/mL
same,MIC,[13],32 µg/mL
same,MBC,[14],16 µg/mL
same,MIC,[14],16 µg/mL
same,MBC,[15],8 µg/mL
same,MIC,[15],8 µg/mL
same,MBC,[16],8 µg/mL
same,MIC,[16],8 µg/mL
same,MBC,[17],32 µg/mL
same,MIC,[17],32 µg/mL
same,MBC,[18],16 µg/mL
same,MIC,[18],16 µg/mL
same,MBC,[19],16 µg/mL
same,MIC,[19],16 µg/mL
same,MBC,[20],16 µg/mL
same,MIC,[20],16 µg/mL
same,MBC,[21],16 µg/mL
same,MIC,[21],16 µg/mL
same,MBC,[22],16 µg/mL
same,MIC,[22],16 µg/mL
same,MBC,[23],8 µg/mL
same,MIC,[23],8 µg/mL
same,MBC,[24],16 µg/mL
same,MIC,[24],16 µg/mL
same,MIC over all strains tested,[25],4 ~ 32 μg/mL
same,intracellular ATP concentration,[26],significantly reduced
